Experiments:
HuCCT1 cell xenograft = test: HuCCT1 xenograft in NOG mouse, oral NIKSMI; type: in vivo; conditions: twice a day, 200 mg/kg
Experimental: (§1) A histopathological slide was deparaffinized with xylene and ethanol. HE staining was performed with hematoxylin and eosin. In immunostaining, antigen activation was performed by heating in Target Retrieval Solution (Dako, USA), followed by blocking with bovine serum albumin and a reaction through use of a primary antibody at 4° C. overnight. A frozen section was dried at room temperature, and was blocked with BSA (Nacalai Tesque, Inc., Japan), followed by a reaction through use of a primary antibody in VECTASTAIN ABC Rabbit IgG Kit (Vector Laboratories, Inc., USA). DAB Substrate Kit (Vector Laboratories, Inc., USA) was used in a staining reaction. […] The number of Ki67-positive cells in a tumor was counted with ImageJ (Fiji). The immunostaining score of TRAF3 or NIK was calculated by multiplying a staining intensity (of from 0 to 3) by a stained area (%). Human ICC patients were grouped into two groups on the basis of the median immunostaining score of TRAF3 or NIK, and were evaluated for their disease-free survival (DFS) or overall survival (OS).
To generate a xenograft tumor, 5×10^6 HuCCT1 cells were mixed with Matrigel at a ratio of 1:1, and the mixture was subcutaneously injected into each of NOG mice. […] During the period, the diameters of the tumors were measured every 3 days, and the tumor sizes were each calculated by using the following equation. […]

L-Traf3/PtenDKO mouse = test: Oral NIKSMI in L-Traf3/PtenDKO mouse: liver HE staining, KRT19 immunostaining and KRT19 expression; type: in vivo; conditions: twice a day, 200 mg/kg
Experimental: as §1, with “reaction. The following antibodies were used in the immunostaining: KRT19 (1:500 Abcam, ab52625), TRAF3 (1:100 Abcam, ab217033), NIK (1:400 Novus Biologicals, NBP2-23603), p-RIP3K (1:100 Genentech), and KI67 (1:1,000 Cell Signaling, #12202S).” for “reaction.”, “(OS). […]” for “(OS).”

[1] = tested on: TRAF3/PTEN knockdown HepG2 cell; test: Cell proliferation assay (IncuCyte) of TRAF3/PTEN knockdown HepG2; type: cell-based, human
Experimental: Hepatocytes or cholangiocarcinoma cells were inoculated on a 96-well plate, and their cell proliferation was analyzed with IncuCyte (trademark) Si (Sartorius AG, Germany) in accordance with the manufacturer's instructions.
Specifically, 24 hours after the start of the culture of each of the PTKD #1HepG2 and the PTKD #1PHH obtained in Test Example 5, NIKSMI described above was added at a concentration of 9 μM. 48 Hours after that, the cells were recovered, and the mRNA of KRT19 was quantified, followed by immunoblotting.
Specifically, the NIK KD #1 or the NIK KD #2 was transfected into the PTKD #1HepG2 and the PTKD #1PHH obtained in Test Example 5 to provide a PTKDNIK #1 and a PTKDNIK #2, respectively. 72 Hours after the start of the culture of each of the cells, the cell was recovered, and the mRNA of KRT19 was quantified, followed by immunoblotting.
The above-mentioned cell proliferation analysis and the production of the cell growth curves were performed with IncuCyte (trademark).

[2] = NIK siRNA transfected, cell growth curve FIG. 14B

| Molecule | number of Ki67-positive cells in tumors versus vehicle-administered tumors (HuCCT1 cell xenograft; NOG mouse HuCCT1 xenograft, 14 days, FIG. 23B) | growth of xenografts derived from the HuCCT1 cells (tumor size) (HuCCT1 cell xenograft; NOG mouse, 14 days from day 28 after transplantation, FIG. 23A) | overgrowth of a cholangiocyte in liver (HE staining, KRT19 immunostaining) (L-Traf3/PtenDKO mouse; 14 days from age 4 weeks, liver at 6 weeks, FIG. 15A) | expression level of the bile duct marker KRT19 in the liver (L-Traf3/PtenDKO mouse; 14 days, FIG. 15B) | increase in proliferation rate of the HepG2 cell by knockdown of TRAF3 and PTEN ([1]; NIKSMI 9 μM, cell growth curve FIG. 14A) | increase in proliferation rate of the HepG2 cell by knockdown of TRAF3 and PTEN [1, 2] |
| --- | --- | --- | --- | --- | --- | --- |
| COc1cc(C(N)=O)nc(-c2cccc(C#C[C@]3(O)CCN(C)C3=O)c2)c1 [NIKSMI, (R)-6-(3-((3-hydroxy-1-methyl-2-oxopyrrolidin-3-yl)ethynyl)phenyl)-4-methoxypicolinamide] | significantly lower | significantly suppressed | significantly suppressed | significantly suppressed | blocked | – |
| NIK KD #1: siRNA of NIK, SEQ ID NO: 2 (sense) and 3 (antisense), from Thermo Fisher Scientific (sense CAAACGCAAAGAGCAAGAAUU; antisense UUCUUGCUCUUUGCGUUUGCA; listed as RNA, chemistry not given here) | – | – | – | – | – | blocked |
| NIK KD #2: siRNA of NIK, SEQ ID NO: 4 (sense) and 5 (antisense), from Thermo Fisher Scientific (sense GCAAAGAGCAAGAACCAAAUU; antisense UUUGGUUCUUGCUCUUUGCGU; listed as RNA, chemistry not given here) | – | – | – | – | – | blocked |
